Usually melting point stands for the temperature, or range, at which the solid turns liquid.

Take `O=C(CCc1nc(CCl)no1)c1ccc(-c2ccccc2)cc1`: the melting point was in the range of 153 to 154 °C.

As for `N#Cc1cccc(NC2CCN(Cc3cc(F)cc(C(F)(F)F)c3)CC2)n1`, the melting point is 115 °C.

For the compound `COc1cc2cc(C(=O)N3CC(CCl)c4c3cc(N)c3ccccc43)[nH]c2cc1OCCN(C)C` (stereo unspecified), the melting point lay within 130 to 133 °C.

As for `CS(=O)(=O)Cc1cc(Br)ccc1C(=O)c1cnoc1C1CC1`, the melting point stood at 154 °C.

In turn, `CCOC(=O)CCC(=O)Nc1cccc(/C=C/c2nc(C3CCC3)cs2)c1` displayed a melting point of 98 to 100 °C.

On to `Fc1ccc(-c2ccccc2)c(F)c1`, for which the melting point lay within 63 to 65 °C.

Compound `O[C@@H]1c2ccccc2C=C[C@H]1NCc1ccccc1` (relative stereo) had a melting point of 125 to 126 °C.

Compound `CCCCNC(=S)N1CCc2[nH]cnc2C1` registered a melting point of 130 °C.

In turn, `COC(=O)COc1ccc(Nc2cc(Nc3ccc(F)c(Cl)c3)ncn2)cc1` had a melting point of 191 to 193 °C.

`CC1(C)CC(=O)c2c(Sc3ccccc3)sc(-c3cc[nH]n3)c2C1`: the melting point was 231 to 234 °C.

On to `COc1cc(OC)nc(Oc2cccc(Cl)c2C(=O)NS(=O)(=O)C(C)C)n1`, for which the melting point lay within 150 to 152 °C.

Compound `CNC(=O)c1cc(-c2ccc(OC)cc2)nn(Cc2ccc(Cl)cc2Cl)c1=O` showed a melting point of 154 to 156 °C.

`CCOC(=O)c1ccc(Oc2ccc(C(C)=C3SCCCS3)cc2)cc1` came in with a melting point of 57 to 58 °C.

On to `COc1ccc(CCNC(=O)C=Cc2cccs2)cc1S(=O)(=O)NC(=S)NC(C)C`, for which the melting point came to 96 °C.

On to `Nc1ccc(C2OCCO2)nc1`, for which the melting point was in the range of 81 to 82 °C.

For the compound `CCCCCCCC(=O)OCOC1=C(C(=O)Nc2ccccn2)N(C)S(=O)(=O)c2ccccc21`, the melting point lay within 98 to 99 °C.

Take `CC(=O)C(=Cc1ccc([N+](=O)[O-])cc1)CC(=O)OCCC#N`: the melting point fell in the range of 98 to 100 °C.

`COC(=O)c1ccccc1N(c1ccccc1)C1(c2ccc(N(C)C)cc2)OC(=O)c2ccccc21` (stereo unspecified) returned a melting point of 92.5 to 102 °C.

As to `CCOC(=O)C1(C(=O)OCC)CCc2cc(Br)ccc2N1Cc1ccccc1`, the melting point lay within 116 to 117 °C.

`CC1(C)OC(=O)Nc2ccc(-c3cc([N+](=O)[O-])cc([N+](=O)[O-])c3)cc21` registered a melting point of 297 to 298 °C.

Consider `ClCCOc1ccc([C@H]2c3ccc(OCc4ccccc4)cc3OC[C@H]2c2ccccc2)cc1` (racemic), for which the melting point lay in the range of 66 to 70.6 °C.

With `CCC(C)(CC)c1nnc(NC(=O)c2c(OC)cccc2OC)[nH]1`, the melting point is 279 to 280 °C.

Compound `CCCCCCCCCCCC(=O)NC(=O)OCc1nc(C(C)C)c(Sc2cc(Cl)cc(Cl)c2)n1CC` returned a melting point of 100 to 102 °C.

Compound `COc1ccc2nc(CCCCCCC(=O)O)ccc2c1` registered a melting point of 84 to 87 °C.

On to `O=[N+]([O-])c1ccc(Oc2ccccc2)cc1OCc1ccccc1`, for which the melting point was 96 to 98 °C.

With `CN1C(=O)C(O)(c2ccccc2)c2cccc(Cl)c21` (stereo unspecified), the melting point was in the range of 125 to 127 °C.

`O=C(CC1CC1)NC[C@H]1CN(c2ccc3c(c2)CCCc2cnoc2-3)C(=O)O1` had a melting point of 187 to 191 °C.

The compound `Cc1ccc(Cl)cc1S(N)(=O)=O` came in with a melting point of 142 to 145 °C.

`Cc1ccc(-c2cc(F)c(F)cc2-c2ccc(S(N)(=O)=O)cc2)cc1`: the melting point fell in the range of 103 to 104 °C.

In turn, `CCc1ccc(SCc2c(C(C)C)nc(C(C)C)c(CO)c2-c2ccc(F)cc2)cc1` yielded a melting point of 102 to 103 °C.

Consider `CCCn1c(=O)c2nc(C(=O)O)cn2c2ccccc21`, for which the melting point is 232 to 234 °C.

As to `Cc1ccccc1-c1cn(-c2ccccc2)c2ncnc(N)c12`, the melting point fell in the range of 181 to 182 °C.

`CCO[C@@H]1C[C@@H]2CN(C(=O)[C@@H](NC(=O)[C@H](C)NC)C3CCC(F)(F)CC3)[C@H](C(=O)N[C@@H]3CCOc4ccccc43)CN2C1`: the melting point was 179 °C.

In the case of `N[C@@H](CS(=O)(=O)O)C(=O)O`, the melting point lay in the range of 273 to 275 °C.

`CC(C)CN(CC(O)C(Cc1ccccc1)NC(=O)C(CC(N)=O)NC(=O)NCc1ccccc1)C(=O)NC(C)(C)C` (stereo unspecified) came in with a melting point of 164 to 166 °C.

The compound `OCc1ccc(OCc2csc(-c3ccccc3)n2)cc1` gave a melting point of 145 to 146 °C.

In the case of `CC(=O)NC(C)c1cc(S(N)(=O)=O)sc1S(C)(=O)=O` (stereo unspecified), the melting point fell in the range of 114 to 117 °C.

`CCCCC1(N(C)C)CCC(c2[nH]c3ccccc3c2C)(c2[nH]c3ccccc3c2CCNC(=O)Nc2ccccc2)CC1` (stereo unspecified) gave a melting point of 115 to 120 °C.

In turn, `COc1ccc(CC(=O)c2cccs2)cc1` returned a melting point of 77 to 78.4 °C.

Compound `CC(C)(C)c1c(=O)o[n-][n+]1CCSC12CC3CC(CC(C3)C1)C2` returned a melting point of 55 to 56 °C.

For `CNS(=O)(=O)c1cc2c(c(C(=O)NCC3CCCN3C)c1)OCCO2` (stereo unspecified), the melting point fell in the range of 187 to 188 °C.

The compound `Cc1ccnc2c([N+](=O)[O-])cc(F)cc12` came in with a melting point of 139 to 141 °C.

Compound `COC(=O)c1ccc(OCC2CN(c3ccc(N)cc3)C(=O)O2)cc1` (stereo unspecified) returned a melting point of 139 to 142 °C.

`CNC(=O)c1cc(Oc2ccc3c(C(=O)Nc4cccc(C(F)(F)F)c4)cccc3c2)ccn1`: the melting point was 175 to 177 °C.

Consider `CCOP(=O)(OCC)c1cnc2ccc(C(F)(F)F)cc2c1`, for which the melting point was 69 °C.

`CC1(S(=O)(=O)C2(C)C=CC=CC2O)C=CC=CC1O` (stereo unspecified) had a melting point of 95 to 97 °C.

`CC1(C)CCc2ccc(OCCCCN3CCN(c4cccc(Cl)c4Cl)CC3)cc2NC1=O` registered a melting point of 110 to 112 °C.

Take `O=S(=O)(c1ccc(C(F)(F)F)cc1)N1c2cc(F)c(F)cc2-c2[nH]ncc2[C@H]1C1CC1`: the melting point is 137 to 138 °C.

The compound `COC(=O)CC[C@H](NC(=O)c1c[nH]c(CCC2CNc3nc(NC(=O)C(C)(C)C)nc(O)c3C2)n1)C(=O)OC` (stereo partly specified) returned a melting point of 129 to 131 °C.

`CCOC(=O)c1csc(-c2ccc3c(=O)n(CC(C)C)c(CNC(=O)OC(C)(C)C)c(-c4ccccc4)c3c2)n1` had a melting point of 170 to 171 °C.

In the case of `N#CCCNC(=O)c1nn(C2CCCCO2)cc1NC(=O)c1cc(Cl)ccn1` (stereo unspecified), the melting point is 218 to 219 °C.

For the compound `Nc1cc(=O)n(Cc2ccccc2Cl)[nH]1`, the melting point is 153 °C.

With `O=C(Oc1c(Cl)cc(Cl)c(Cl)c1Cl)c1ccc(CCl)cc1`, the melting point fell in the range of 143 to 149 °C.

For the compound `C(=C\c1nc(COc2ccc(CCCCCCn3cncn3)cc2)co1)/c1ccccc1`, the melting point lay within 90 to 91 °C.

`O=C(O)c1cn(C2CC2)c2c(F)c(N3CCOC(CN4CCOCC4)C3)c(F)cc2c1=O` (stereo unspecified): the melting point was in the range of 171 to 172 °C.

The compound `CCCc1nc(C(=O)OC)c(C(=O)OC)n1Cc1ccc(-c2ccccc2-c2nnn[nH]2)cc1` showed a melting point of 124 to 126 °C.

`CC(C)Oc1ccc(-c2nn(C(C)c3oc4ccccc4c(=O)c3-c3cccc(F)c3)c3ncnc(N)c23)cc1Cl` (stereo unspecified) showed a melting point of 198 to 200 °C.

Turning to `Cc1cc2c(N3CCc4ccc(Cl)cc43)ncnc2cn1`, the melting point lay in the range of 232 to 234 °C.

`CCOC1=Nc2nc(C(C)(C)C)[nH]c2C2=N[C@H](Cc3ccccc3)CN12` displayed a melting point of 220 to 222 °C.

`CN1CCC(C2(O)c3ccccc3Sc3ccc(S(=O)(=O)C(F)(F)F)cc32)CC1` (stereo unspecified): the melting point fell in the range of 211 to 216 °C.

As for `COc1ccc(C(=O)Nc2ccc(F)cc2)cc1Nc1ccc(F)cc1`, the melting point was in the range of 193 to 194 °C.

Compound `N#CSc1cc(Cl)c(Cl)c2sc(NC(=O)Nc3ccc(Br)cc3)nc12` had a melting point of 243 to 245 °C.

In the case of `CCOC(=O)c1cnc2cn[nH]c2c1Nc1cccs1`, the melting point is 188 to 190 °C.

For the compound `Cc1cccc(COc2ccc(C#N)cc2Cl)c1`, the melting point lay in the range of 73 to 75 °C.

Compound `C[C@H]1Cc2c(Cl)c(Cl)cc3c(=O)c(C(=O)O)cn1c23` came in with a melting point of 268 to 270 °C.

Take `CCCCCc1cc2c(nc(O)n2CC2CCNCC2)c(N)n1`: the melting point was in the range of 246 to 249 °C.

The compound `CC(C)(C)C(=O)COc1nn(CC#N)c(-c2ccc(S(C)(=O)=O)cc2)c1-c1ccc(F)cc1` displayed a melting point of 156 to 159 °C.

Turning to `O=C1CCCc2cc(OCc3ccccc3)ccc21`, the melting point was 95 to 97 °C.

`CN(C)C=NS(=O)(=O)c1c(C(F)(F)F)nc2ccc(Cl)nn12` returned a melting point of 204 to 205 °C.

For the compound `CNC(=O)OC(C)C(=O)Nc1ccc(C2=NNC(=O)CC2C)cc1` (stereo unspecified), the melting point fell in the range of 96 to 98 °C.

Turning to `O=C1N(CCN(c2ccccn2)c2ccccn2)c2ccccc2C12COc1cc3c(cc12)OCO3` (stereo unspecified), the melting point was in the range of 165 to 167 °C.

In turn, `COc1ccc2c(c1)CCC1C2CCC2(C)C(OC(C)=O)=CCC12` (stereo unspecified) showed a melting point of 97 to 100 °C.

With `CCCCc1oc2ccccc2c1C(=O)NCc1ccc(-c2ccc(OCC(=O)O)c(Br)c2)cc1`, the melting point was 175 to 190 °C.

`COc1ccc(C2(O)c3cc(NC(=O)CC(C)(C)C)c(C)c(C)c3OC2(C)C)cc1` (stereo unspecified): the melting point was in the range of 110 to 111 °C.

Compound `O=C(O)C1c2ccccc2N=C(N2CCCCC2)N1c1ccccc1` (stereo unspecified) showed a melting point of 238 °C.

In turn, `CC(C)(C)OC(=O)N1CCC2(CC1)CC(c1ccc(CNS(C)(=O)=O)c(F)c1)=NO2` displayed a melting point of 178 to 182 °C.

Turning to `COc1ccc(CNC(=O)c2ccccc2)cc1OC`, the melting point lay in the range of 101 to 102 °C.

Compound `CC(=O)[C@H]1[C@H](C(=O)O)C1(C)C` (relative stereo) showed a melting point of 111 °C.

As to `O=S(=O)(Nc1onc2c1CCCC2)c1ccccc1`, the melting point was 155 to 157 °C.

In turn, `Cc1ccc([C@@H]2Sc3cc(COC(c4ccccc4)(c4ccccc4)c4ccccc4)ccc3N(CCN(C)C)C(=O)[C@@H]2O)cc1` yielded a melting point of 110 to 114 °C.

On to `COc1cccc(C=C2NC(=O)N(C)C2=O)c1`, for which the melting point lay in the range of 203 to 205 °C.

Consider `CCc1cc(-c2ccc(Cl)cc2)nc2c(C(=O)O)cnn12`, for which the melting point came to 227 °C.

For `CCN1C(=O)C(C)(C)C(=O)N(C)c2cc(CCCN(CCn3ccc4occc4c3=O)Cc3cccnc3C)ccc21`, the melting point lay within 151 to 155 °C.

For the compound `O=c1cc(COC2CCCCO2)occ1OCCCCCBr` (stereo unspecified), the melting point turned out to be 140 °C.

Turning to `c1ccc2c(c1)OCCc1c-2n(CCCCCCN2CCCCC2)c2ccccc12`, the melting point stood at 110 °C.

Regarding `CCOC(=O)c1cn([C@@H]2C[C@@H]2F)c2c(C)c(F)ccc2c1=O`, the melting point lay in the range of 187 to 188 °C.

Source of the values: a melting point compilation (Tetko et al.; mined from patent text by program, amines drawn as free bases though some values may be those of a salt).
